In patent US8242159B2, “1,3-dihydro-5-isobenzofurancarbonitrile derivatives and pharmaceutical composition thereof for the treatment of premature ejaculation” (Dong-A Pharmaceutical. Co., Ltd, priority 2007, dated 2012):
pIC50: −log10 of the molar value.

Columns and labels:
Male Wistar rats = assay: p-PCA-induced ejaculation in anesthetized rats (ejaculation-delaying effect); format: in vivo, rat; conditions: for Ratio: Number of responding animals/total animal number: 50 mg/kg oral in 1% HPMC, p-PCA 5 mg/kg i.p. 80 min later, observed 30 min; for Latency: Time to display the ejaculatory response: 50 mg/kg oral, p-PCA 5 mg/kg i.p., mean ± standard deviation of responding rats
Protocol: The compounds prepared in the above examples were evaluated to determine whether they have an effect of delaying ejaculation. The evaluation was carried out using an animal model according to a method described in Yonezawa et al., Life Sci. 2000, 67(25) p 3031-9. Male Wistar rats weighing 240-260 g were used. Each compound was suspended in 1% HPMC, and then administered orally to each animal. After 60 min, the animals were anesthetized and fixed. 20 min later, para-chloroamphetamine (p-PCA) was intraperitoneally administered in a dose of 5 mg/kg in order to induce ejaculation. […] An ejaculatory response was considered to be elicited when rhythmic contraction of bulbocavernosus muscles and semen discharge occurs. Six or more animals were used for each compound. A Fisher's […] test was performed for the comparison of the proportion of responding rats (ejaculated rats) to determine significance of difference between a treatment group and a vehicle control. The time to reach ejaculation was expressed as mean±standard deviation.
Each test compound was administered at a dose of 50 mg/kg. Ejaculation was elicited in all seven animals of a control group.

[1] = Determination of half-lives of the compounds in rats (oral, plasma HPLC); format: in vivo; conditions: rat, male Sprague-Dawley rats, 10 mg/kg (text also says 5 mg/kg), 0.5% methylcellulose
Protocol: The half-lives of present compounds were determined as follows. Each compound was administered orally to male Sprague-Dawley rats weighing approximately 270 g at a dose of 10 mg/kg. 5 mg/kg of each compound was suspended in 0.5% methyl-cellulose and then administered to rats. Blood samples were collected 0.017, 0.083, 0.25, 0.5, 1, 2, 3, 5, 7 and 24 hours after administration, and centrifuged at 1,000 rpm for 3 min to separate plasma. The concentration of each compound in plasma was determined using high performance liquid chromatography, which was performed with a mobile phase of 10 mM ammonium formate (pH 3.0) and acetonitrile (50:50), an […] column (21×100 mm, 3 μm) and a flow rate of 0.2 ml/min.

5HT1A receptor = molecular target: T1, 5HT1A receptor (Homo sapiens, UniProt P08908); assay: Radioligand competitive binding assay; conditions: human-derived recombinant CHO cells
T1 construct: expressed in transfected cells; host or cells: CHO cells
T1 sequence (P08908 1-422): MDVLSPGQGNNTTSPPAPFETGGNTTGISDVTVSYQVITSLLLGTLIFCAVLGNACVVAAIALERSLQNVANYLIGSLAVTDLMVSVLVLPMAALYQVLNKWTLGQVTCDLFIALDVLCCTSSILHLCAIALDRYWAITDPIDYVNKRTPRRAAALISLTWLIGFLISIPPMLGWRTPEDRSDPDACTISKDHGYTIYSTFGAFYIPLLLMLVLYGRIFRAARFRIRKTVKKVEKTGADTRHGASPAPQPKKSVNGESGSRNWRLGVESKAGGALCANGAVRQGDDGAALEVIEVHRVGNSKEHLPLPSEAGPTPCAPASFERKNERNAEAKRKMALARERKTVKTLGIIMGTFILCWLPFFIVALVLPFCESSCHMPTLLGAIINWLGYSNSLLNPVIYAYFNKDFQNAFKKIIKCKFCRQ
Protocol: (§1) In addition, ligand binding to 5HT1A, 5-HT1B and 5-HT2C receptors and 5-HT transporter was evaluated with human-derived recombinant CHO cells, Wistar rat-derived cerebral cortical cells, human-derived recombinant CHO-K1 cells, and human-derived recombinant HEK-293 cells. Each cell line was dosed with 10^−5 μM to 10^4 μM of the compounds of Examples 2, 35, 40 and 45, and then incubated with a radio-labeled ligand for competitive binding. Ligands used were […], [^125I]Cyanopindolol, [^3H]Mesulergine and [^3H]Paroxetine, respectively. The competitive binding assay was carried out in 50 mM Tris-HCl buffer at 25° C. or 37° C., for 60 to 90 min.

5-HT1B receptor = molecular target: T2, 5-HT1B receptor (Rattus norvegicus, UniProt P28564); assay: Radioligand competitive binding assay, [125I]Cyanopindolol; conditions: Wistar rat-derived cerebral cortical cells
T2 construct: Wistar rat-derived cerebral cortical cells; from tissue; host or cells: Wistar rat cerebral cortex
T2 sequence (P28564 whole entry): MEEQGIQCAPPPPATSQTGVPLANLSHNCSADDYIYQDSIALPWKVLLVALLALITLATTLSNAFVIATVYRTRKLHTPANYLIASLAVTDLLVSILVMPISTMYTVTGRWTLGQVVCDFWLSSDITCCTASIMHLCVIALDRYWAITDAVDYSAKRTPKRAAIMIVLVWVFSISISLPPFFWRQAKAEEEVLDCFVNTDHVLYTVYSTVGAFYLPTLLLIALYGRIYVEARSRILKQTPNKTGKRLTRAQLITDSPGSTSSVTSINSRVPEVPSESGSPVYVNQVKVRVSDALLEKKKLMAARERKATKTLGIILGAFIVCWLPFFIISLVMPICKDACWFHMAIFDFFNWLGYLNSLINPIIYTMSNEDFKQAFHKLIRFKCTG
Protocol: as §1

5-HT2C receptor = molecular target: T3, 5-HT2C receptor (Homo sapiens, UniProt P28335); assay: Radioligand competitive binding assay, [3H]Mesulergine; conditions: human-derived recombinant CHO-K1 cells
T3 construct: expressed in transfected cells; host or cells: CHO-K1 cells
T3 sequence (P28335 33-458): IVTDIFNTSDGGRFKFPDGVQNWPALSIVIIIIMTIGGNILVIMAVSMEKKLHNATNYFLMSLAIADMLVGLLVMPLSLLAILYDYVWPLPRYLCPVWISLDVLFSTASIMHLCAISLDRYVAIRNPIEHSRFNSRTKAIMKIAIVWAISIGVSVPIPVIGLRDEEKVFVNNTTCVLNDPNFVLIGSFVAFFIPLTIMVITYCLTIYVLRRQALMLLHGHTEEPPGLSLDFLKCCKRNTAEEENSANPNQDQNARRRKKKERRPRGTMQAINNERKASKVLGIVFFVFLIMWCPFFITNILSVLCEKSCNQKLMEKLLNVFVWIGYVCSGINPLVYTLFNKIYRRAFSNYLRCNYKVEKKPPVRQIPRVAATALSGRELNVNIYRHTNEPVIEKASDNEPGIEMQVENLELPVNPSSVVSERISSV
Protocol: as §1

5-HT transporter = molecular target: T4, 5-HT transporter (Homo sapiens, UniProt P31645); assay: Radioligand competitive binding assay, [3H]Paroxetine; conditions: human-derived recombinant HEK-293 cells
T4 construct: expressed in transfected cells; host or cells: HEK-293 cells
T4 sequence (P31645 whole entry): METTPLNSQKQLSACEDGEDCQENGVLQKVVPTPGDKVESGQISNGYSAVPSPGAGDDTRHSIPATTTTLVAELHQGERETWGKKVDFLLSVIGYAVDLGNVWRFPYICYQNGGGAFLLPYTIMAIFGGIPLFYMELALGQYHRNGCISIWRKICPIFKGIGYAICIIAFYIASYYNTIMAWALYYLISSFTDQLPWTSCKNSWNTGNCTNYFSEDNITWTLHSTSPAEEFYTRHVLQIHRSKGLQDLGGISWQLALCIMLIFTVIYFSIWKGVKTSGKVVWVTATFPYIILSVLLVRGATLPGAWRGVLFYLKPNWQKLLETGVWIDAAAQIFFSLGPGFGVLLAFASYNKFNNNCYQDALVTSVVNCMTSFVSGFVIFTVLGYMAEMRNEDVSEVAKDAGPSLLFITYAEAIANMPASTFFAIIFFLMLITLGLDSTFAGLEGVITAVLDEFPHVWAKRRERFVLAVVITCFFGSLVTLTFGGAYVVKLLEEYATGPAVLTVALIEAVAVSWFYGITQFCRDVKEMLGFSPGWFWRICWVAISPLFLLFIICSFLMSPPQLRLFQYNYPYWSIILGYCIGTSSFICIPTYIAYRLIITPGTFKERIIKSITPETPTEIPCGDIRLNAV
Protocol: as §1

[2] = tested on: cellular uptake of dopamine; assay: Cellular reuptake assay, [3H]dopamine; format: cell-based; conditions: 10 min, CHO-1 cell line
Protocol: (§2) First, the effects of the present compounds on cellular uptake of dopamine, norepinephrine and serotonin were evaluated with human-derived CHO-1, MDCK and HEK-293 cell lines. Each cell line was dosed with 10^−5 μM to 10^4 μM of the compounds of Examples 2, 35, 40 and 45, and then incubated with [^3H]dopamine, [^3H]norepinephrine and [^3H]serotonin in buffer. After 10 min, the amount of each neurotransmitter taken up into cells was determined by counting radioactivity using a liquid scintillation counter (LSC).

[3] = tested on: cellular uptake of norepinephrine; assay: Cellular reuptake assay, [3H]norepinephrine; format: cell-based; conditions: 10 min, MDCK cell line
Protocol: as §2

[4] = tested on: cellular uptake of serotonin; assay: Cellular reuptake assay, [3H]serotonin; format: cell-based; conditions: Homo sapiens, HEK293, 10 min, HEK-293 cell line
Protocol: as §2

Sprague-Dawley (SD) rats = assay: Acute toxicity test, single dose, mortality; format: in vivo, rat
Description: The present derivatives and citalopram were individually administered orally and intra-venously to SD rats at a single dose.

[5] = molecular target: hERG (human Ether-a-go-go Related Gene) (Homo sapiens, UniProt Q12809); assay: Cardiotoxicity test, hERG assay (MDS Pharma)
hERG (human Ether-a-go-go Related Gene), sequence (Q12809 whole entry): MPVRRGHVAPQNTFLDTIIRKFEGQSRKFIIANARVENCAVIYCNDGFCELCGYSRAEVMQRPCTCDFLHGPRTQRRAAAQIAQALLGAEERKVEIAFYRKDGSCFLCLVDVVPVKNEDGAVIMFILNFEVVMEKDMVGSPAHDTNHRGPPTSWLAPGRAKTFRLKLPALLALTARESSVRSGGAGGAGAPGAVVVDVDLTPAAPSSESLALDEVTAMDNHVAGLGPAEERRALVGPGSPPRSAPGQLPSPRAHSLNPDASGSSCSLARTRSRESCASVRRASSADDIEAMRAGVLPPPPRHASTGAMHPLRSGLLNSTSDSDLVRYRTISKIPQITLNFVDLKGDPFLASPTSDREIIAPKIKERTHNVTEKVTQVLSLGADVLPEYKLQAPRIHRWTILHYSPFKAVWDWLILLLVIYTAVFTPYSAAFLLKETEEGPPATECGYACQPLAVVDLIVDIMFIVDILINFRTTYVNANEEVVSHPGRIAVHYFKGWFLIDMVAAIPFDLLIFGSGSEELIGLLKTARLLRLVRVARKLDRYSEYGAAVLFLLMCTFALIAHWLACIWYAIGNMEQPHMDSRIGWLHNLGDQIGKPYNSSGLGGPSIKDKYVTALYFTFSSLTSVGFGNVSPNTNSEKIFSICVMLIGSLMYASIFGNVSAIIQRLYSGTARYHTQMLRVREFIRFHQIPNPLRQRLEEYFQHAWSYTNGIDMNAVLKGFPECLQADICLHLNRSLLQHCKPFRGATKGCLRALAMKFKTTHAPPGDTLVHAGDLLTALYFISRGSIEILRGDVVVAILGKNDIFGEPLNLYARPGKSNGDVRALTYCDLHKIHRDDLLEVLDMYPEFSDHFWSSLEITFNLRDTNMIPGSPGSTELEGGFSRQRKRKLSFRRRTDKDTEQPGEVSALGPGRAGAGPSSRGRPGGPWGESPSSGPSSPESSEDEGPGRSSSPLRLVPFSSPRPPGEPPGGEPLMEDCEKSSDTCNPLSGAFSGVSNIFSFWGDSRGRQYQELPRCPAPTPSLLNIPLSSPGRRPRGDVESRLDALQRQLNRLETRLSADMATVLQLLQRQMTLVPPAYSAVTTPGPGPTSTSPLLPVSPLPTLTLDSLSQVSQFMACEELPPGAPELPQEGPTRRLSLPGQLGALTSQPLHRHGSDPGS
Description: To evaluate the safety of the present derivatives in comparison with control drug, conducted was hERG (human Ether-a-go-go Related Gene) assay which is a representative test of safety medical test. This test was requested to trial institute MDS Pharma., which conducted this test.

[6] = tested on: Salmonella typhimurium TA98, 100, 1535, 1537, E. coli WP2 uvrA; assay: Mutagenicity test: Ames test; format: cell-based; conditions: 8, 40, 200, 1000, 2500, 5000 μg/plate, presence/absence of a metabolic activation system
Protocol: (§3) To evaluate the safety of the present derivatives, mutagenicity test was conducted. Ames test and chromosome aberration test were conducted with the examples 2, 35, 40 and 45.

[7] = tested on: CHL (Chinese Hamster Lung) cell; assay: Mutagenicity test: chromosome aberration test; format: cell-based; conditions: 75, 150, 300 μg/ml with metabolic activation; 20, 40, 80 μg/ml without
Protocol: as §3

For `CN(C)CCCC1(c2ccc(N(C)C)cc2)OCc2cc(C#N)ccc21.O=C(O)C(=O)O` (centres unmarked) [Ex. 35, 1-(4-dimethylaminophenyl)-1-{3-(dimethylamino)propyl}-1,3-dihydro-5-isobenzofurancarbonitrile oxalate], the “Ratio: Number of responding animals/total animal number” value (Male Wistar rats) was 0/9, the Tmax [1] was 0.25 h and the half-life [1] was 3.51 h. For the same compound, the pIC50 (5HT1A receptor) was 2.95, the pIC50 (5-HT1B receptor) was < 3.00 and the pIC50 (5-HT2C receptor) was 3.05. The pIC50 (5-HT transporter) was 9.00, the pIC50 [2] was 4.00 and the pIC50 [3] was 4.27. It also gave a pIC50 [4] of 6.37, a minimum lethal dose (Sprague-Dawley (SD) rats; Intravenously, female SD rats) of 50 and a minimum lethal dose (Sprague-Dawley (SD) rats; Intravenously, male SD rats) of 50. The minimum lethal dose (Sprague-Dawley (SD) rats; Orally, female SD rats) was 1000, the minimum lethal dose (Sprague-Dawley (SD) rats; Orally, male SD rats) was 1000 and the pIC50 [5] was 4.91. The Ames test result [6] was “negative” and the “chromosome aberration test result” value [7] was “negative”.
For `N#Cc1ccc2c(c1)COC2(CCCn1ccnc1)c1ccc(Cl)cc1` (centres unmarked) [Ex. 61, 1-(4-chlorophenyl)-1-{3-(imidazole-1-yl)propyl}-1,3-dihydro-5-isobenzofurancarbonitrile], the “Ratio: Number of responding animals/total animal number” value (Male Wistar rats) was 3/7 and the “Latency: Time to display the ejaculatory response” value (“Latency: Time” for short) (Male Wistar rats) was 930 ± 247 s.
With `Cl.N#Cc1ccc2c(c1)COC2(CCCn1cccn1)c1cccs1` (centres unmarked) [Ex. 50, 1-{3-(pyrazole-1-yl)propyl}-1-(2-thienyl)-1,3-dihydro-5-isobenzofurancarbonitrile hydrochloride] the “Ratio: Number of responding animals/total animal number” value (Male Wistar rats) was 3/7 and the “Latency: Time” value (Male Wistar rats) was 979 ± 347 s.
In the case of `Cc1ccc(C2(CCn3ccnc3)OCc3cc(C#N)ccc32)cc1` (centres unmarked) [Ex. 28, 1-{2-(imidazole-1-yl)ethyl}-1-(4-tolyl)-1,3-dihydro-5-isobenzofurancarbonitrile], the “Ratio: Number of responding animals/total animal number” value (Male Wistar rats) was 3/7 and the “Latency: Time” value (Male Wistar rats) was 734 ± 451 s.
With `COc1ccc(C2(CCCn3cccn3)OCc3cc(C#N)ccc32)cc1` (centres unmarked) [Ex. 8, 1-(4-methoxyphenyl)-1-{3-(pyrazole-1-yl)propyl}-1,3-dihydro-5-isobenzofurancarbonitrile] the “Ratio: Number of responding animals/total animal number” value (Male Wistar rats) was 4/9 and the “Latency: Time” value (Male Wistar rats) was 1230 ± 421 s.
With `CN(C)CCCC1(c2ccc(N(C)C)cc2)OCc2cc(C#N)ccc21.Cl` (centres unmarked) [Ex. 36, 1-(4-dimethylaminophenyl)-1-{3-(dimethylamino)propyl}-1,3-dihydro-5-isobenzofurancarbonitrile hydrochloride] the “Ratio: Number of responding animals/total animal number” value (Male Wistar rats) was 2/6 and the “Latency: Time” value (Male Wistar rats) was 554 ± 77 s.
With `Cc1ccc(C2(CCCN(C)C)OCc3cc(C#N)ccc32)cc1.Cl` (centres unmarked) [Ex. 23, 1-{3-(dimethylamino)propyl}-1-(4-tolyl)-1,3-dihydro-5-isobenzofurancarbonitrile hydrochloride] the “Ratio: Number of responding animals/total animal number” value (Male Wistar rats) was 4/7 and the “Latency: Time” value (Male Wistar rats) was 967 ± 274 s.
In the case of `COc1ccc(C2(CCCn3ccnc3)OCc3cc(C#N)ccc32)cc1` (centres unmarked) [Ex. 4, 1-{3-(imidazole-1-yl)propyl}-1-(4-methoxyphenyl)-1,3-dihydro-5-isobenzofurancarbonitrile], the “Ratio: Number of responding animals/total animal number” value (Male Wistar rats) was 4/9 and the “Latency: Time” value (Male Wistar rats) was 1300 ± 124 s.
With `N#Cc1ccc2c(c1)COC2(CCCn1ccnc1)c1ccc(F)cc1` (centres unmarked) [Ex. 53, 1-(4-fluorophenyl)-1-{3-(imidazole-1-yl)propyl}-1,3-dihydro-5-isobenzofurancarbonitrile] the “Ratio: Number of responding animals/total animal number” value (Male Wistar rats) was 4/9 and the “Latency: Time” value (Male Wistar rats) was 1054 ± 320 s.
With `N#Cc1ccc2c(c1)COC2(CCCn1ccnc1)c1cccs1` (centres unmarked) [Ex. 44, 1-{3-(imidazole-1-yl)propyl}-1-(2-thienyl)-1,3-dihydro-5-isobenzofurancarbonitrile] the “Ratio: Number of responding animals/total animal number” value (Male Wistar rats) was 4/7 and the “Latency: Time” value (Male Wistar rats) was 904 ± 350 s.
